Measured values: patent publication US20250345277A1, “Ionizable Liposome, Preparation Thereof, and Application Thereof in Gene Delivery” (MAXIRNA (ZHEJIANG) TECHNOLOGY CO. LTD., priority 2021, published 2025)

What was measured:
[1] = Size and polydispersity index PDI of lipid nanoparticles (Malvern Zetasizer Nano ZS); format: physicochemical; settings: LNP ionizable lipid/DOPE/cholesterol/DSPE-PEG2000 35/16/46.5/2.5 mol% encapsulating EGFP mRNA; for Particle Size: in nm (unit assumed)
Method: The ionizable lipid compound of Example 1 was dissolved in ethanol with DOPE, cholesterol and DSPE-PEG2000 (all purchased from AVT (Shanghai) Pharmaceutical Technology Co., Ltd.) at a molar ratio of 35:16:46.5:2.5 to prepare ethanol lipid solution, and enhanced green fluorescent protein (EGFP) mRNAs (Shanghai Maximna Pharmaceutical Engineering Co., Ltd., JN-4201) were diluted in 20 mM citrate buffer (pH=6.1) to obtain mRNA aqueous solution. Ethanol lipid solution and mRNA aqueous solution were mixed at a volume ratio of 1:3 by using a microfluidic device (Micro&Nano (Shanghai) Instrument Technology Co., Ltd., model: INano™ML), LNPs were prepared with a weight ratio of approximately 10:1 between total lipids and mRNAs. The medium was replaced by ultrafiltration, ethanol was removed and volumed with DPBS. Finally, the lipid nanoparticles were filtered through a 0.2 μm sterile filter to obtain a LNP formulation encapsulating eGFP mRNA using ionizable lipid/DOPE/cholesterol/DSPE-PEG2000 (35/16/46.5/2.5 mol %), the concentration of mRNAs being 0.002 mg/mL-0.5 mg/mL.
Using Malvern Zetasizer Nano ZS (Malvern UK), the size and polydispersity index PDI of lipid nanoparticles were measured at […].

DC2.4 cells = assay: In vitro transfection of DC2.4 cells with EGFP mRNA LNP preparation (flow cytometry); format: cell-based, mouse; settings: for Cell Viability / Positive Rate (EGFP) / Fluorescence Intensity: DC2.4 cells; for Cell Viability / Positive Rate (EGFP): EGFP mRNA LNP, 200 ng mRNA per well, flow cytometry; for Fluorescence Intensity: EGFP mRNA expression level, normalized based on the sample with the highest fluorescence intensity
From the text: The description is based on peripheral blood mononuclear cells PBMC (Shanghai Oribiotech Co., Ltd.), human peripheral blood leukemia T cell Jurkat (ATCC), tumor infiltrating lymphocyte TIL (isolated from resected tumor tissue of a liver cancer patient, the preparation method refers to CN114763530A), mouse bone marrow-derived dendritic cells DC2.4 (Cell Bank of the Chinese Academy of Sciences), and Chinese hamster ovary cells CHO (ATCC) were used as verified cell lines for liposome transfection. PBMC, Jurkat, and TIL cells grew in suspension, while DC2.4 and CHO cells grew by adherent culture. All the operation steps of cell culture must strictly abide by the prescribed procedures, and sterile reagents is used to perform aseptic operations under a sterile workbench. The main steps are as follows: • 1) Cell recovery: the preserved cell cryopreservation solution was taken out of the −80° C. refrigerator, and was immediately put in a 37° C. water bath for rapid and continuous shaking, and was completely melted within one minute. Fresh medium was added to the 15 mL centrifuge tube in advance, and the cell solution was added to the centrifuge tube in a biological safety cabinet. A centrifuge tube of the same quality was taken and placed symmetrically in a centrifuge, centrifuged at a low speed at 1200 rpm for 5 min. After centrifugation, the supernatant was removed, and an appropriate amount of medium was slowly added along the tube wall. After the cells were evenly dispersed by blowing gently, the cell suspension was pipette and added to the culture bottle prepared in advance. The state and distribution of the cells in the early stage of recovery were observed under a microscope. The culture bottle was placed in a 5% CO2 incubator and incubated at 37° C., and the recovery time was recorded. • 2) Cell subculture: Under the microscope, if the cell density in the field of view reaches 80%-90%, the cells can be subcultured. Adherent cells need to be digested with trypsin. In order to avoid the residual serum in the culture medium to reduce the activity of trypsin, DPBS solution was added to wash once after removing the original culture medium. After remove the DPBS solution, trypsin was added to degrade the protein at the junction between cells. This separates the cells for further culture. The cells were gently shaked evenly and put into the incubator for digestion for 2 min. Immediately after the digestion was completed, an appropriate amount of medium was added to the original petri dish to terminate the digestion. Finally, the cells were carefully blowed off using a pipette and blowed until they are evenly dispersed, and then inoculated and subcultured at a certain ratio according to the experimental requirements. […]
• 1) DC2.4 cells recovery: the frozen DC2.4 cells were taken out from the −80° C. refrigerator, put in a 37° C. water bath to quickly thaw the cells, added to the preheated medium after thawing, centrifuged at 1200 rpm for 5 min, the supernatant was discarded, and an appropriate amount of DMEM medium with 10% FBS was added to resuspend the recovered DC2.4, and placed in a 5% CO2 incubator at 37° C. for activation and culture. • 2) According to the experimental arrangement, DC2.4 cells were plated on a 24-well plate one day in advance for cell transfection. Through cell counting, the number of cells and cell viability were recorded, the cell suspension were taken at 2×10^5 cells per well, then a certain volume of DMEM medium containing 10% FBS was added and mixed evenly, 1 mL of mixture was added to each well for subsequent transfection experiment. • 3) After 24 hours, the medium was gently removed 30 minutes in advance by a pipette, 1 mL DPBS was added to each well for washing and then removed, then 300 μL serum-free Opti-MEM medium was added to each well for subsequent transfection experiments.
Subsequent steps are the same as the transfection protocol for PBMC cells. […]

| SMILES | PDI [1] | Particle Size [1] | Cell Viability (DC2.4 cells) [%] | Positive Rate (EGFP) (DC2.4 cells) [%] | Fluorescence Intensity (DC2.4 cells) | cell viability by flow cytometry (FIG. 1) (DC2.4 cells; DC2.4, after in vitro transfection) | transfection efficiency (FIG. 2) (DC2.4 cells; DC2.4, in the absence of AopE4) |
| --- | --- | --- | --- | --- | --- | --- | --- |
| CCCCCCCCCCC(O)CN(CCN1CCN(CCN(CCN(CC(O)CCCCCCCCCC)CC(O)CCCCCCCCCC)CCN(CC(O)CCCCCCCCCC)CC(O)CCCCCCCCCC)CC1)CC(O)CCCCCCCCCC (centres unmarked) [A-C12] | 0.173 | 91.6 | 87.1 | 73.3 | 0.84 |  |  |
| CCCCCCCCCCCCC(O)CN(CCN1CCN(CCN(CCN(CC(O)CCCCCCCCCCCC)CC(O)CCCCCCCCCCCC)CCN(CC(O)CCCCCCCCCCCC)CC(O)CCCCCCCCCCCC)CC1)CC(O)CCCCCCCCCCCC (centres unmarked) [A-C14] | 0.107 | 97.1 | 95.4 | 92.3 | 0.30 |  |  |
| CCCCCCCCCCCCCCC(O)CN(CCN1CCN(CCN(CCN(CC(O)CCCCCCCCCCCCCC)CC(O)CCCCCCCCCCCCCC)CCN(CC(O)CCCCCCCCCCCCCC)CC(O)CCCCCCCCCCCCCC)CC1)CC(O)CCCCCCCCCCCCCC (centres unmarked) [A-C16] | 0.183 | 90.8 | 90.0 | 66.3 | 0.80 |  |  |
| CCCCCCCCCCCCCCCCC(O)CN(CCN1CCN(CCN(CCN(CC(O)CCCCCCCCCCCCCCCC)CC(O)CCCCCCCCCCCCCCCC)CCN(CC(O)CCCCCCCCCCCCCCCC)CC(O)CCCCCCCCCCCCCCCC)CC1)CC(O)CCCCCCCCCCCCCCCC (centres unmarked) [A-C18] | 0.144 | 96.9 | 93.0 | 61.9 | 0.87 |  |  |
| CCCCCCCCCCC(O)CN(CCOCCN(CCOCCN(CC(O)CCCCCCCCCC)CC(O)CCCCCCCCCC)CCN1CCN(CCOCCN(CC(O)CCCCCCCCCC)CC(O)CCCCCCCCCC)CC1)CC(O)CCCCCCCCCC (centres unmarked) [B-C12, 19-(2-(4-(2-(2-(di(2-hydroxydodecyl)amino)ethoxy)ethyl)piperazin-1-yl)ethyl)-13, 15-bis(2-hydroxydodecyl)-16,22-dioxa-13,19,25-triazaheptakadecane-11,27-diol] | 0.147 | 102.9 | 85.0 | 83.0 | 0.20 |  |  |
| CCCCCCCCCCCCC(O)CN(CCOCCN(CCOCCN(CC(O)CCCCCCCCCCCC)CC(O)CCCCCCCCCCCC)CCN1CCN(CCOCCN(CC(O)CCCCCCCCCCCC)CC(O)CCCCCCCCCCCC)CC1)CC(O)CCCCCCCCCCCC (centres unmarked) [B-C14] | 0.133 | 90.5 | 95.0 | 90.2 | 1.00 | high viability | high transfection efficiency |
| CCCCCCCCCCC(O)CN(CCOCCOCCN(CCOCCOCCN(CC(O)CCCCCCCCCC)CC(O)CCCCCCCCCC)CCN1CCN(CCOCCOCCN(CC(O)CCCCCCCCCC)CC(O)CCCCCCCCCC)CC1)CC(O)CCCCCCCCCC (centres unmarked) [C-C12] | 0.070 | 92.5 | 94.0 | 64.4 | 0.71 |  |  |
| CCCCCCCCCCC(O)CN(CCOCCOCCOCCN(CCOCCOCCOCCN(CC(O)CCCCCCCCCC)CC(O)CCCCCCCCCC)CCN1CCN(CCOCCOCCOCCN(CC(O)CCCCCCCCCC)CC(O)CCCCCCCCCC)CC1)CC(O)CCCCCCCCCC [D-C12] | 0.073 | 90.5 | 90.8 | 65.6 | 0.07 |  |  |
| CCCCCCCCCCCCC(O)CN(CCOCCOCCOCCN(CCOCCOCCOCCN(CC(O)CCCCCCCCCCCC)CC(O)CCCCCCCCCCCC)CCN1CCN(CCOCCOCCOCCN(CC(O)CCCCCCCCCCCC)CC(O)CCCCCCCCCCCC)CC1)CC(O)CCCCCCCCCCCC [D-C14] | 0.168 | 97.2 | 91.3 | 96.7 | 0.95 |  |  |
| CCCCCCCCCCCCCCC(O)CN(CCOCCOCCOCCN(CCOCCOCCOCCN(CC(O)CCCCCCCCCCCCCC)CC(O)CCCCCCCCCCCCCC)CCN1CCN(CCOCCOCCOCCN(CC(O)CCCCCCCCCCCCCC)CC(O)CCCCCCCCCCCCCC)CC1)CC(O)CCCCCCCCCCCCCC [D-C16] | 0.117 | 91.6 | 91.1 | 71.7 | 0.82 |  |  |
| CCCCCCCCCCCCCCCCC(O)CC(CCOCCOCCOCCN(CCOCCOCCOCCN(CC(O)CCCCCCCCCCCCCCCC)CC(O)CCCCCCCCCCCCCCCC)CCN1CCN(CCOCCOCCOCCN(CC(O)CCCCCCCCCCCCCCCC)CC(O)CCCCCCCCCCCCCCCC)CC1)CC(O)CCCCCCCCCCCCCCCC [D-C18] | 0.105 | 103.0 | 81.5 | 64.4 | 0.45 |  |  |
| CCCCCCCCCCCCC(O)CN(CCN(CCN1CCN(C)CC1)CCN(CC(O)CCCCCCCCCCCC)CC(O)CCCCCCCCCCCC)CC(O)CCCCCCCCCCCC (centres unmarked) [E-C14] | 0.119 | 85.2 | >99.0 | 84.3 | 0.45 |  |  |
| CCCCCCCCCCCCC(O)CN(CCOCCN(CCOCCN(CC(O)CCCCCCCCCCCC)CC(O)CCCCCCCCCCCC)CCN1CCN(C)CC1)CC(O)CCCCCCCCCCCC (centres unmarked) [F-C14] | 0.131 | 82.4 | 93.2 | 73.5 | 0.33 |  |  |
| CCCCCCCCCCCCC(O)CN(CCOCCOCCN(CCOCCOCCN(CC(O)CCCCCCCCCCCC)CC(O)CCCCCCCCCCCC)CCN1CCN(C)CC1)CC(O)CCCCCCCCCCCC (centres unmarked) [G-C14] | 0.180 | 86.4 | >99.0 | 67.5 | 0.30 |  |  |
| CCCCCCCCCCCCC(O)CN(CCOCCOCCOCCN(CCOCCOCCOCCN(CC(O)CCCCCCCCCCCC)CC(O)CCCCCCCCCCCC)CCN1CCN(C)CC1)CC(O)CCCCCCCCCCCC (centres unmarked) [H-C14] | 0.099 | 94.8 | 91.7 | 66.8 | 0.52 |  |  |
